In the NIST ThermoML archive (doi:10.1021/je020189p):
“And” between values parts separate entries of the source, which are not always exact repeats. Identical values can stand only once.

Settings: Crystal

[I][Gd]([I])[I] [gadolinium triiodide]
Settings	vapor or sublimation pressure
890 K	4.47e-05 kPa
891 K	5.62e-05 kPa
901 K	6.76e-05 kPa and 8.32e-05 kPa and 5.62e-05 kPa
905 K	8.51e-05 kPa
911 K	0.000112 kPa
912 K	8.91e-05 kPa
913 K	0.000112 kPa
914 K	0.000138 kPa and 8.91e-05 kPa
916 K	0.000112 kPa
918 K	0.000135 kPa
919 K	0.000155 kPa
920 K	0.000112 kPa
922 K	0.000178 kPa
924 K	0.000123 kPa
925 K	0.000178 kPa
927 K	0.000174 kPa and 0.000151 kPa
928 K	0.000145 kPa and 0.000195 kPa and 0.000209 kPa
929 K	0.000234 kPa
933 K	0.000191 kPa
934 K	0.000269 kPa
936 K	0.0002 kPa
937 K	0.000282 kPa and 0.000251 kPa
938 K	0.000324 kPa
939 K	0.000295 kPa
942 K	0.000347 kPa and 0.000269 kPa
943 K	0.000245 kPa
944 K	0.000355 kPa
946 K	0.000398 kPa
947 K	0.000389 kPa
948 K	0.000372 kPa
951 K	0.000331 kPa
952 K	0.00049 kPa
954 K	0.000417 kPa
955 K	0.000525 kPa and 0.000603 kPa
957 K	0.000575 kPa and 0.000457 kPa
959 K	0.000447 kPa
962 K	0.000708 kPa
964 K	0.000794 kPa
966 K	0.000575 kPa and 0.000794 kPa and 0.000631 kPa
967 K	0.000724 kPa
970 K	0.000912 kPa
973 K	0.00107 kPa
974 K	0.00102 kPa
975 K	0.00107 kPa and 0.000891 kPa
978 K	0.000832 kPa and 0.00107 kPa
979 K	0.00126 kPa
983 K	0.00135 kPa and 0.00115 kPa
984 K	0.00145 kPa
985 K	0.00158 kPa
987 K	0.00162 kPa
988 K	0.00115 kPa
990 K	0.00155 kPa
992 K	0.00174 kPa and 0.00141 kPa
993 K	0.00191 kPa and 0.00204 kPa
995 K	0.00214 kPa
997 K	0.00138 kPa
1002 K	0.00251 kPa and 0.00219 kPa
1003 K	0.00269 kPa
1006 K	0.00191 kPa
1011 K	0.00331 kPa and 0.00282 kPa
1012 K	0.00355 kPa
1019 K	0.00339 kPa
1021 K	0.00389 kPa
1023 K	0.00676 kPa
1026 K	0.00407 kPa
1033 K	0.00871 kPa and 0.00537 kPa
1040 K	0.00603 kPa
1042 K	0.00692 kPa
1045 K	0.0126 kPa
1052 K	0.00871 kPa
1054 K	0.00977 kPa
1055 K	0.017 kPa
1064 K	0.0219 kPa
1066 K	0.0135 kPa and 0.0145 kPa
1074 K	0.0302 kPa
1076 K	0.0209 kPa
1082 K	0.0214 kPa
1083 K	0.0398 kPa
1086 K	0.0282 kPa
1094 K	0.0537 kPa
1097 K	0.0372 kPa
1102 K	0.0676 kPa
